Data as given in patent publication US8461329B2, “Isoquinoline derivative” (Taisho Pharmaceutical Co., Ltd., priority 2008, dated 2013).
Read-outs that look alike come from different tables or passages of the source.

Legend:
[1] = target: T1, CRTH2 (KB8 cells) (Homo sapiens, UniProt Q9Y5Y4); experiment: CRTH2 antagonist test (PGD2-induced intracellular calcium ion concentration increase in KB8 cells); type: cell-based
T1 construct: host or cells: KB8 cells (human CRTH2 expression cell)
T1 sequence (Q9Y5Y4 1-395): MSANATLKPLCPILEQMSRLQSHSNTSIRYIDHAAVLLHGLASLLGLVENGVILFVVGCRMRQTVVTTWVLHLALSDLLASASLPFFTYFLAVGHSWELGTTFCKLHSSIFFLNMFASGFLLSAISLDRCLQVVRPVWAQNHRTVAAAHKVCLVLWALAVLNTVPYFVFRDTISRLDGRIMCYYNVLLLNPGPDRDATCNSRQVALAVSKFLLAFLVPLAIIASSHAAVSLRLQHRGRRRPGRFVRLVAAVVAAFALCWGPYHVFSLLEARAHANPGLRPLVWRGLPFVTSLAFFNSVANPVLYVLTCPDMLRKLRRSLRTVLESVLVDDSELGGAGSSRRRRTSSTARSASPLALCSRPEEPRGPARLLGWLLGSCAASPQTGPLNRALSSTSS
Summary of the method: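 Fluo-4-AM-loaded KB8 cells in HBSS with 10 mM HEPES and 1 mM CaCl2 received compound plus PGD2 (final 100 nM); peak fluorescence followed over time. Inhibition was computed against no-compound and unlabelled-PGD2 controls, and IC50 obtained from a dose-response curve.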

[2] = target: T2, human CRTH2 expression cell KB8 (Homo sapiens, UniProt Q9Y5Y4); experiment: CRTH2 binding test (3H-PGD2 binding to KB8 cells); conditions: 3H-PGD2 5 nM, 4° C., one hour
T2 construct: host or cells: KB8 cells (human CRTH2 expression cell)
T2 sequence (Q9Y5Y4 1-395): T1 sequence (Q9Y5Y4 1-395)
Experimental: CRTH2 binding inhibitory activity of the compound of the present invention was considered by using a binding test between human CRTH2 expression cell KB8 (BML, INC.) and ^3H-labeled prostaglandin D2 (hereinafter, abbreviated as ^3H-PGD2, manufactured by GE Healthcare).
KB8 was suspended in a reaction buffer solution (Hank's balanced salt solution (Invitrogen) containing 10 mM HEPES (Invitrogen)), which was dispensed in a 96 well plate (Coaster) so that 2×10^5 cells/well are placed. Furthermore, the compound of the present invention and ^3H-PGD2 (final concentration: 5 nM) were added, stirred, and incubated at 4° C.
One hour later, cells were collected on GF/C Filter Plate (PerkinElmer) that had been pre-coated with 0.5% polyethyleneimine solution (SIGMA) by using a Cell Harvester (Packard BioScience), and the radioactivity of the cells was measured by using Top count NXT (PerkinElmer) (a value measured herein was represented by a measurement value “a”). The same procedure was carried out in the absence of the compound, and a measurement value “b” was obtained; and the same procedure was carried out in the absence of the compound and in the presence of non-labeled PGD2 (final concentration: 50 μM), a measurement value “c” was obtained.
The binding inhibition rate of the compound was calculated by the following calculation formula: Bonding inhibitory rate(%)=[1−(a−c)/(b−c)]×100
That is to say, by using binding inhibition rates of compounds to be tested having various concentrations, the IC50 value was calculated according to a dose-dependent inhibition curve analyzed by using XLfit (IDBS) as a data analysis software, and the calculated value was defined as an indicator of the inhibitory activity. In Table 9, A denotes an inhibitory activity showing the IC50 value of less than 50 nM; B denotes an inhibitory activity showing the IC50 value of 50 nM or greater and less than 500 nM; C denotes an inhibitory activity showing the IC50 value of 500 nM or greater and less than 1000 nM; and D denotes an inhibitory activity showing the IC50 value of 1000 nM or greater.

[3] = PGD2 final concentration 100 nM, Fluo-4-AM fluorescence, read-out: antagonist activity (IC50 value, inhibition of calcium ion concentration increase)
[4] = IC50 class, read-out: binding inhibitory activity
[5] = read-out: CRTH2 binding inhibitory activity IC50 value

SMILES | IC50 [1, 3] | IC50 [2, 4] | IC50 [2, 5] | IC50 ([1]; PGD2 100 nM, Fluo-4 calcium fluorescence, read-out: CRTH2 antagonist activity IC50 value)
CC(C)(C)OC(=O)Nc1ccc(C(=O)c2ncc(CC(=O)O)c3ccccc23)cc1 [Example 1, [1-({4-[(tert-butoxycarbonyl)amino]phenyl}carbonyl)isoquinolin-4-yl]acetic acid] | 0.05 to 0.5 µM | < 0.05 µM | – | –
O=C(O)Cc1cnc(C(=O)c2ccc(NC(=O)/C=C/c3ccc(F)cc3)cc2)c2ccccc12 [Example 83] | < 0.05 µM | < 0.05 µM | – | –
O=C(O)Cc1cnc(C(=O)c2ccc(NC(=O)c3cc4ccccc4[nH]3)cc2)c2ccccc12 [Example 18] | < 0.05 µM | < 0.05 µM | 0.0035 µM | –
O=C(O)Cc1cnc(C(=O)c2ccc(OCCc3ccc(Cl)cc3)cc2)c2ccccc12 [Example 141, [1-({4-[2-(4-chlorophenyl)ethoxy]phenyl}carbonyl)isoquinolin-4-yl]acetic acid] | 0.05 to 0.5 µM | < 0.05 µM | – | –
O=C(O)Cc1cnc(C(=O)c2ccc(NC(=O)c3ccc(C(F)(F)F)cc3)cc2)c2ccccc12 [Example 11] | < 0.05 µM | < 0.05 µM | – | –
O=C(O)Cc1cnc(C(=O)c2ccc(NC(=O)c3ccc(Cl)cc3)cc2)c2ccccc12 [Example 29] | < 0.05 µM | < 0.05 µM | – | –
O=C(O)Cc1cnc(C(=O)c2ccc(NC(=O)CCc3ccc(Cl)c(Cl)c3)cc2)c2ccccc12 [Example 4] | < 0.05 µM | < 0.05 µM | – | –
O=C(O)Cc1cnc(C(=O)c2ccc(NC(=O)c3ccc(F)c(Cl)c3)cc2)c2ccccc12 [Example 34] | < 0.05 µM | < 0.05 µM | – | –
O=C(O)Cc1cnc(C(=O)c2ccc(NC(=O)Nc3ccc(Cl)c(Cl)c3)cc2)c2ccccc12 [Example 130, {1-[(4-{[(3,4-dichlorophenyl)carbamoyl]amino}phenyl)carbonyl]isoquinolin-4-yl}acetic acid] | < 0.05 µM | < 0.05 µM | – | –
O=C(O)Cc1cnc(C(=O)c2ccc(NC(=O)c3ccc4ccccc4c3)cc2)c2ccccc12 [Example 14] | < 0.05 µM | < 0.05 µM | – | –
O=C(O)Cc1cnc(C(=O)c2ccc(OCCOc3ccc(Cl)cc3)cc2)c2ccccc12 [Example 143] | 0.05 to 0.5 µM | < 0.05 µM | 0.0099 µM | –
O=C(O)Cc1cnc(C(=O)c2ccc(C(=O)NCCc3ccc(Cl)c(Cl)c3)cc2)c2ccccc12 [Example 137] | < 0.05 µM | < 0.05 µM | – | –
O=C(O)Cc1cnc(C(=O)c2ccc(C(=O)Nc3ccc(Cl)c(Cl)c3)cc2)c2ccccc12 [Example 136] | < 0.05 µM | < 0.05 µM | – | –
O=C(O)Cc1cnc(C(=O)c2ccc(NCc3ccc(Cl)c(Cl)c3)cc2)c2ccccc12 [Example 133, [1-({4-[(3,4-dichlorobenzyl)amino]phenyl}carbonyl)isoquinolin-4-yl]acetic acid] | < 0.05 µM | < 0.05 µM | – | –
O=C(O)Cc1cnc(C(=O)c2ccc(OCc3ccc(Cl)c(Cl)c3)cc2)c2ccccc12 [Example 134, [1-({4-[(3,4-dichlorobenzyl)oxy]phenyl}carbonyl)isoquinolin-4-yl]acetic acid] | 0.05 to 0.5 µM | < 0.05 µM | – | –
O=C(O)Cc1cnc(C(=O)c2ccc(NC(=O)/C=C/c3ccc(Cl)c(Cl)c3)cc2)c2ccccc12 [Example 6] | < 0.05 µM | < 0.05 µM | – | –
O=C(O)Cc1cnc(Cc2ccc(C(=O)NCCc3ccc(Cl)cc3)cc2)c2ccccc12 [Example 153, [1-(4-{[2-(4-chlorophenyl)ethyl]carbamoyl}benzyl)isoquinolin-4-yl]acetic acid] | < 0.05 µM | < 0.05 µM | – | 0.012 µM
O=C(O)Cc1cnc(C(=O)c2ccc(NC(=O)c3ccc(OC(F)(F)F)cc3)cc2)c2ccccc12 [Example 8] | < 0.05 µM | < 0.05 µM | – | –

SMILES | IC50 [1, 3] | IC50 [2, 4] | IC50 [2, 5] | IC50 ([1]; PGD2 100 nM, Fluo-4 calcium fluorescence, read-out: CRTH2 antagonist activity IC50 value)
COc1ccc(CCNC(=O)c2ccc(C(=O)c3ncc(CC(=O)O)c4ccccc34)cc2)cc1 [Example 138] | < 0.05 µM | < 0.05 µM | – | –
O=C(O)Cc1cnc(C(=O)c2ccc(NC(=O)OCc3ccc(Cl)c(Cl)c3)cc2)c2ccccc12 [Example 131, (1-{[4-({[(3,4-dichlorobenzyl)oxy]carbonyl}amino)phenyl]carbonyl}isoquinolin-4-yl)acetic acid] | < 0.05 µM | < 0.05 µM | – | –
O=C(O)Cc1cnc(C(=O)c2ccc(NC(=O)C3CCC(c4ccc(Cl)cc4)CC3)cc2)c2ccccc12 (centres unmarked) [Example 82] | < 0.05 µM | < 0.05 µM | 0.0028 µM | –
O=C(O)Cc1cnc(C(=O)c2ccc(NC(=O)c3cc4ccccc4o3)cc2)c2ccccc12 [Example 50] | < 0.05 µM | < 0.05 µM | – | –
O=C(O)Cc1cnc(Cc2ccc(NC(=O)c3ccc(Cl)c(Cl)c3)cc2)c2ccccc12 [Example 148, [1-(4-{[(3,4-dichlorophenyl)carbonyl]amino}benzyl)isoquinolin-4-yl]acetic acid] | < 0.05 µM | < 0.05 µM | – | –
COc1ccc(C(=O)Nc2ccc(C(=O)c3ncc(CC(=O)O)c4ccccc34)cc2)cc1 [Example 7] | < 0.05 µM | < 0.05 µM | – | –
O=C(O)Cc1cnc(C(=O)c2ccc(NC(=O)CC3CCCCC3)cc2)c2ccccc12 [Example 21] | 0.05 to 0.5 µM | < 0.05 µM | – | –
O=C(O)Cc1cnc(C(=O)c2ccc(NC(=O)NCc3ccc(Cl)c(Cl)c3)cc2)c2ccccc12 [Example 132, {1-[(4-{[(3,4-dichlorobenzyl)carbamoyl]amino}phenyl)carbonyl]isoquinolin-4-yl}acetic acid] | 0.05 to 0.5 µM | < 0.05 µM | – | –
O=C(O)Cc1cnc(C(=O)c2ccc(NC(=O)COc3ccc(Cl)c(Cl)c3)cc2)c2ccccc12 [Example 23] | < 0.05 µM | < 0.05 µM | – | –
O=C(O)Cc1cnc(C(=O)c2ccc(NC(=O)c3ccc(Oc4ccccc4)cc3)cc2)c2ccccc12 [Example 9] | 0.05 to 0.5 µM | < 0.05 µM | – | –
O=C(O)Cc1cnc(C(=O)c2ccc(NC(=O)c3cc4cc(Cl)ccc4[nH]3)cc2)c2ccccc12 [Example 92] | < 0.05 µM | < 0.05 µM | – | –
O=C(O)Cc1cnc(C(=O)c2ccc(NC(=O)c3ccc([N+](=O)[O-])cc3)cc2)c2ccccc12 [Example 15] | < 0.05 µM | < 0.05 µM | – | –
O=C(O)Cc1cnc(C(=O)c2ccc(NC(=O)C3(c4ccc(Cl)c(Cl)c4)CC3)cc2)c2ccccc12 [Example 5] | 0.05 to 0.5 µM | < 0.05 µM | – | –
O=C(O)Cc1cnc(C(=O)c2ccc(OCCCc3ccc(Cl)cc3)cc2)c2ccccc12 [Example 142] | 0.05 to 0.5 µM | < 0.05 µM | – | –
O=C(O)Cc1cnc(C(=O)c2ccc(NC(=O)Cc3ccc(-c4ccccc4)cc3)cc2)c2ccccc12 [Example 22] | 0.05 to 0.5 µM | < 0.05 µM | – | –
Cc1ccc(C(=O)Nc2ccc(C(=O)c3ncc(CC(=O)O)c4ccccc34)cc2)cc1 [Example 17] | < 0.05 µM | < 0.05 µM | – | –
N#Cc1ccc(C(=O)Nc2ccc(C(=O)c3ncc(CC(=O)O)c4ccccc34)cc2)cc1 [Example 13] | ≥ 1 µM | < 0.05 µM | – | –
